Laboratory results reported in patent EP0597029B1, “W/O MICROEMULSIONS” (SMITHKLINE BEECHAM CORPORATION, priority 1991, dated 1993).
Where two headings read alike, the source gives them in different places.

Tests used:
[1] = value in parentheses, from the CRC Handbook of Chemistry and Physics, 60th Edition; cited from earlier work
[2] = Viscosity of microemulsions; assay type: physicochemical; details: aqueous phase = water; oil plus low HLB surfactant (3:1, 87%), high HLB surfactant (10%), aqueous (3%)
Excerpt: (§1) All the microemulsions had oil plus low HLB surfactant (3:1, 87%), high HLB surfactant (10%) and aqueous (3%).

[3] = value in parentheses, from the CRC Handbook of Chemistry and Physics, 60th Edition; cited from earlier work; remark: listed apart in the source
[4] = Refractive index of microemulsions; assay type: physicochemical; details: aqueous phase = water; oil plus low HLB surfactant (3:1, 87%), high HLB surfactant (10%), aqueous (3%)
Excerpt: as §1

Question: For CCCCCCCC/C=C\CCCCCCCC(=O)O [Oleic Acid], which Viscosity [1] is on record?
Answer: Its Viscosity is 25.6 centiPoise.

Question: And the Viscosity [2]?
Answer: The Viscosity was 23.4 centiPoise.

Question: And the Refractive index [3]?
Answer: Its Refractive index is 1.4583.

Question: What about the Refractive index [4] of the same compound?
Answer: The Refractive index was 1.4582.
